Columns and labels:
Type in all cases: in vivo
Echinochloa crus-galli [1] = test: Test Example 11: herbicidal effect test by soil treatment in paddy field; conditions: 120 g/10a active ingredient, 14 days after treatment
Procedure, shortened: (§1)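 Puddled paddy soil with N:P:K 17:17:17 fertilizer in Wagner pots; 30 seeds per species sown at 0–1 cm, flooded to about 3 cm, kept in a glass greenhouse. Water-diluted emulsifiable concentrate dripped in immediately after sowing at 120 g a.i. per 10 are. Suppression from dry weight versus untreated at 14 days.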

Lindernia pyxidaria [2] = test: as above; conditions: 120 g/10a active ingredient, 14 days after treatment
Procedure, shortened: as §1

Monochoria vaginalis [3] = test: as above; conditions: 120 g/10a active ingredient, 14 days after treatment
Procedure, shortened: as §1

Scirpus juncoides [4] = test: as above; conditions: 120 g/10a active ingredient, 14 days after treatment
Procedure, shortened: as §1

Echinochloa crus-galli [5] = test: Test Example 12: herbicidal effect test by treatment during growing period in paddy field; conditions: 120 g/10a; treatment seven days after sowing in flooded paddy pot; assessed 14 days after treatment
Procedure, shortened: (§2)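 Read-out: weed suppression (%) = (1 − treated/untreated mean dry weight) × 100, scored 14 days after treatment with two replications. Pots held puddled paddy soil, 30 seeds per species sown 0–1 cm, flooded ~3 cm. Post-emergence dropwise water application at 7 days after sowing, 120 g a.i./10 are.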

Lindernia pyxidaria [6] = test: as above; conditions: 120 g/10a; treatment seven days after sowing in flooded paddy pot; assessed 14 days after treatment
Procedure, shortened: as §2

Monochoria vaginalis [7] = test: as above; conditions: 120 g/10a; treatment seven days after sowing in flooded paddy pot; assessed 14 days after treatment
Procedure, shortened: as §2

Scirpus juncoides [8] = test: as above; conditions: 120 g/10a; treatment seven days after sowing in flooded paddy pot; assessed 14 days after treatment
Procedure, shortened: as §2

Amaranthus viridis [9] = test: Test Example 13: herbicidal effect test by soil treatment in upland field; conditions: 120 g/10a, 14 days after treatment
Procedure, shortened: (§3)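 Field alluvial soil in 36 cm^2 pots had 20 seeds of each weed mixed into its top 1 cm. One day after sowing, a water-diluted emulsifiable concentrate was sprayed onto the soil at 100 liter per 10 are (120 g active ingredient per 10 are), with two replicates. Weed suppression (%) was assessed after 14 days.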

Chenopodium album [10] = test: as above; conditions: 120 g/10a, 14 days after treatment
Procedure, shortened: as §3

Echinochloa crus-galli [11] = test: as above; conditions: 120 g/10a, 14 days after treatment
Procedure, shortened: as §3

crabgrass [12] = test: as above; conditions: 120 g/10a, 14 days after treatment
Procedure, shortened: as §3

Chenopodium album [13] = test: Test Example 14: herbicidal effect test by foliage treatment in upland field; conditions: 7 days after sowing, 120 g/10a, 14 days after treatment
Procedure, shortened: (§4)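 Weeds sown 20 seeds each in alluvial field soil; 7 days after sowing, water-diluted emulsifiable concentrate sprayed at 100 L per 10 are, 120 g active ingredient per 10 are. Suppression rate (%) from dry weight versus untreated plots at 14 days, two replicates.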

crabgrass [14] = test: as above; conditions: 7 days after sowing, 120 g/10a, 14 days after treatment
Procedure, shortened: as §4

Amaranthus viridis [15] = test: as above; conditions: 7 days after sowing, 120 g/10a, 14 days after treatment
Procedure, shortened: as §4

Echinochloa crus-galli [16] = test: as above; conditions: 7 days after sowing, 120 g/10a, 14 days after treatment
Procedure, shortened: as §4

| SMILES | Weed suppression rate (%) Echinochloa crus-galli (Echinochloa crus-galli [1]) [%] | Weed suppression rate (%) Lindemia pyxidaria (Lindernia pyxidaria [2]) [%] | Weed suppression rate (%) Monochoria vaginalis (Monochoria vaginalis [3]) [%] | Weed suppression rate (%) Scirpus juncoides (Scirpus juncoides [4]) [%] | Weed suppression rate (%) Echinochloa crus-galli (Echinochloa crus-galli [5]) [%] | Weed suppression rate (%) Lindemia pyxidaria (Lindernia pyxidaria [6]) [%] | Weed suppression rate (%) Monochoria vaginalis (Monochoria vaginalis [7]) [%] | Weed suppression rate (%) Scirpus juncoides (Scirpus juncoides [8]) [%] | herbicidal effect, Amaranthus viridis (Amaranthus viridis [9]) [%] | herbicidal effect, Chenopodium album (Chenopodium album [10]) [%] | herbicidal effect, Echinochloa crus-galli (Echinochloa crus-galli [11]) [%] | herbicidal effect, Crabgrass (crabgrass [12]) [%] | herbicidal effect, Chenopodium album (Chenopodium album [13]) [%] | herbicidal effect, Crabgrass (crabgrass [14]) [%] | herbicidal effect, Amaranthus viridis (Amaranthus viridis [15]) [%] | herbicidal effect, Echinochloa crus-galli (Echinochloa crus-galli [16]) [%] |
| --- | --- | --- | --- | --- | --- | --- | --- | --- | --- | --- | --- | --- | --- | --- | --- | --- |
| CC(C)N(C(=O)n1cnn(S(=O)(=O)c2cccc(F)c2)c1=O)c1ccccc1 [Compound 11-427] | 100 | 80 | 60 | 60 | 90 | 90 | 90 | 90 | 40 | 60 | 70 | 90 | 60 | 90 | 40 | 40 |
| CCN(CC)C(=O)n1cnn(S(=O)(=O)c2ccc(F)cc2)c1=O [Compound 11-463] | 90 | 50 | 50 | 40 | 90 | 80 | 80 | 80 | 80 | 100 | 90 | 90 | 0 | 60 | 40 | 70 |
| CC(C)N(C(=O)n1cnn(S(=O)(=O)c2ccc(F)cc2)c1=O)c1ccc(F)cc1F [Compound 11-475] | 100 | 90 | 90 | 90 | 90 | 90 | 90 | 90 | 80 | 90 | 100 | 100 | 40 | 90 | 40 | 70 |
| CC(C)N(C(=O)n1cnn(S(=O)(=O)c2ccc(F)cc2)c1=O)c1ccc(F)cc1Cl [Compound 11-482] | 90 | 80 | 80 | 90 | 90 | 80 | 80 | 90 | 90 | 80 | 80 | 90 | 80 | 90 | 90 | 80 |
| CCN(CC)C(=O)n1cnn(S(=O)(=O)c2ccccc2Cl)c1=O [Compound 11-500] | 90 | 50 | 50 | 50 | 80 | 60 | 60 | 60 | 0 | 0 | 80 | 80 | 50 | 40 | 40 | 40 |
| CC(C)N(C(=O)n1cnn(S(=O)(=O)c2ccccc2Cl)c1=O)c1ccccc1 [Compound 11-501] | 100 | 90 | 80 | 90 | 100 | 80 | 90 | 90 | 0 | 0 | 40 | 90 | 0 | 90 | 0 | 70 |
| CC(C)N(C(=O)n1cnn(S(=O)(=O)c2ccccc2Cl)c1=O)c1ccc(F)cc1F [Compound 11-512] | 100 | 100 | 100 | 100 | 100 | 100 | 100 | 90 | 70 | 50 | 100 | 100 | 50 | 90 | 40 | 80 |
| Cc1ccccc1S(=O)(=O)n1ncn(C(=O)N(c2ccc(F)cc2F)C(C)C)c1=O [Compound 11-623] | 100 | 100 | 90 | 90 | 100 | 100 | 100 | 90 | 0 | 0 | 100 | 90 | 40 | 60 | 40 | 80 |
| Cc1ccc(S(=O)(=O)n2ncn(C(=O)N(c3ccccc3)C(C)C)c2=O)cc1 [Compound 11-626] | 100 | 90 | 70 | 90 | 90 | 80 | 80 | 90 | 50 | 70 | 90 | 90 | 90 | 90 | 60 | 40 |

Reference: US11076595B2, “1-(n,n-disubstituted carbamoyl) 4-(substituted sulfonyl)triazolin-5-one derivative, 4-(n,n-disubstituted carbamoyl) 1-(substituted sulfonyl)triazolin-5-one derivative, and herbicide containing said derivative as active ingredient” (HOKKO CHEMICAL INDUSTRY CO., LTD., priority 2017, dated 2021)
